Reference: PMC9695592, “Phenotypic Evaluation of Nucleoside Analogues against Trypanosoma cruzi Infection: In Vitro and In Vivo Approaches” (Molecules, 2022)
Entries after “also recorded” stand apart in the source; their conditions may differ.

Assays:
[1] = test system: intracellular forms of T. cruzi; set-up: method as in PMID 20428688; details: read-out: EC90 value of Bz against the intracellular forms of T. cruzi; cited from earlier work
[2] = test system: T. cruzi (Tulahuen strain) in L929; test: Washout assay in T. cruzi-infected L929 cultures (Tulahuen strain); format: cell-based, Trypanosoma cruzi; details: 10 μM for seven days, then seven days drug-free medium; light microscopy
Description: To explore in vitro parasitic exhaustion, T. cruzi-infected L929 cultures were incubated for seven days with the compounds at 10 μM. Then, fresh drug-free medium was added and replaced every 48 h. After seven days of incubation, the number of released parasites into the supernatant was quantified by light microscopy.
T. cruzi-infected L929 cultures (using the Tulahuen-β gal strain) were exposed or not to 10 µM of each nucleoside derivative, and the RPMI culture medium (containing the tested compounds) replaced every 48 h. After seven days of incubation, the cultures were rinsed with 0.1 M phosphate buffered saline (PBS), and drug-free culture medium was added for another seven days of incubation, replacing the drug-free medium every 48 h. Parasites released into the supernatant of the cell cultures were quantified using light microscopy, and the parasite burden into the infected cultures was analyzed by adding the substrate CPRG (chlorophenol red ß-D-galactopyranoside) followed by spectrophotometric measurements at 570 nm. The results were expressed as percentage of reduction in parasite growth compared to untreated cells, and EC50 values were calculated. Bz was used as a positive control. The data results from two independent experiments done in at least duplicate.

Row | SMILES | EC90 [1] | parasites released into the supernatant after washout [2]
1 | O=C(Cn1ccnc1[N+](=O)[O-])NCc1ccccc1 [Bz, Benznidazole, reference compound] | 10 µM | –
2 | Nc1ncnc2c1c(-c1ccc(Cl)c(F)c1)cn2[C@@H]1O[C@H](CO)[C@@H](O)[C@H]1O [FH10714, 7-(3-fluoro,4-chlorophenyl)tubercidin] | – | sterilized the infected cultures; also recorded: cleared the parasitism; also recorded: eliminated the parasitism
